Experimental data taken from ChEMBL document CHEMBL1201862, “PubChem BioAssay data set” (2004).
Activity calls are given as the source filed them.

Legend:
[1] = target: T1, Replicative DNA helicase DnaB (Mycobacterium tuberculosis, UniProt P9WMR3); test: DnaB intein splicing inhibitors, dose response, biochemical, cell-free fluorescence (AID 449749); assay type: functional
T1 sequence (P9WMR3 whole entry): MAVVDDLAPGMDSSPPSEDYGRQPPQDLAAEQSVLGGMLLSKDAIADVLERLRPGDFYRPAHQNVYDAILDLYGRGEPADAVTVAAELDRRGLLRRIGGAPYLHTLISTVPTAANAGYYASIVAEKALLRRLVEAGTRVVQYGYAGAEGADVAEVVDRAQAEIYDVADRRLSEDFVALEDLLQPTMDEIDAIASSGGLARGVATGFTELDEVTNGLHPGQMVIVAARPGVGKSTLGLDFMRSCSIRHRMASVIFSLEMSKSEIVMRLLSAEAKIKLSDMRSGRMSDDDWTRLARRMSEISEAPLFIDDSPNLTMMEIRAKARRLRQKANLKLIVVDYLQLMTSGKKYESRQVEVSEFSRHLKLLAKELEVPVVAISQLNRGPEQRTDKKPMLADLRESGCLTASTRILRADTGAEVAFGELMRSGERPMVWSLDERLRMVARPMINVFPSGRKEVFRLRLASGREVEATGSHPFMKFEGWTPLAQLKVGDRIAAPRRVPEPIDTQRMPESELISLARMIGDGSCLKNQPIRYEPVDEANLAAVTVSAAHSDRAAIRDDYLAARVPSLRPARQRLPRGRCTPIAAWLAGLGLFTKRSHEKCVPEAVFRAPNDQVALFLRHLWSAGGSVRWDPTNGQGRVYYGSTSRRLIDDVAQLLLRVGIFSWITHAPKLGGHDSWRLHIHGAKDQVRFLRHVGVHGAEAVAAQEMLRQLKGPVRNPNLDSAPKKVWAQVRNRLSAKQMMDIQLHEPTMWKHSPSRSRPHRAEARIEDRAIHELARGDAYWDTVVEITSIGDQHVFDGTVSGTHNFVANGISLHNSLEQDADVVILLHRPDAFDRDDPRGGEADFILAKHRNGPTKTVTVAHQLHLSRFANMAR

[2] = Luminescence Cell-Based Dose Response HTS to Identify Inhibitors of 5'UTR Stem-Loop Driven Prion Protein mRNA Translation in H4 Neuroglioblastoma Cells. [Related pubchem assays: 1827 (Project Summary), 1813 (Primary HTS)]; assay type: functional
Streptokinase A = target: T2, Streptokinase A (Streptococcus pyogenes serotype M1, UniProt P10520); test: viability-normalized secreted streptokinase activity reduction – plasminogen activation absorbance, OD405, dose response (AID 1914); assay type: functional, Streptococcus pyogenes M1 GAS;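 note: secreted streptokinase activity via plasminogen activation per viability signal from cell pellet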
T2 sequence (P10520 whole entry): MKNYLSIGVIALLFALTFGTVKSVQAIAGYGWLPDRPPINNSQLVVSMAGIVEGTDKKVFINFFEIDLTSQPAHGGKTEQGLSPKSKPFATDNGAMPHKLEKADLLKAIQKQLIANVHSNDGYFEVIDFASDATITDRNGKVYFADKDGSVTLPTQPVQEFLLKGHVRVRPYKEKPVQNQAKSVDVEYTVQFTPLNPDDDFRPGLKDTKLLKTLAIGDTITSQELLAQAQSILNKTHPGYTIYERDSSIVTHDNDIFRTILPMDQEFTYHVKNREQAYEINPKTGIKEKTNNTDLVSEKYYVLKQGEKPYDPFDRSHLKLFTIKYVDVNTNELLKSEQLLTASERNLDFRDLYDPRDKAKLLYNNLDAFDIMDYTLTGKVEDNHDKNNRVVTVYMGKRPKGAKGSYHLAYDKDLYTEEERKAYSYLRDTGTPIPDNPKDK

[3] = target: T3, Heat shock factor protein 1 (Mus musculus, UniProt P38532); test: decrease of HSF1-responsive luciferase luminescence – cell-based, NIH3T3, dose retest, confirmation (AID 2382); assay type: functional;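 note: NIH3T3 fibroblasts with HSF1-driven luciferase reporter stressed by proteasome inhibitor MG132; luminescence from HSF1-driven luciferase expression after 8 hours of MG132 stress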
T3 sequence (P38532 whole entry): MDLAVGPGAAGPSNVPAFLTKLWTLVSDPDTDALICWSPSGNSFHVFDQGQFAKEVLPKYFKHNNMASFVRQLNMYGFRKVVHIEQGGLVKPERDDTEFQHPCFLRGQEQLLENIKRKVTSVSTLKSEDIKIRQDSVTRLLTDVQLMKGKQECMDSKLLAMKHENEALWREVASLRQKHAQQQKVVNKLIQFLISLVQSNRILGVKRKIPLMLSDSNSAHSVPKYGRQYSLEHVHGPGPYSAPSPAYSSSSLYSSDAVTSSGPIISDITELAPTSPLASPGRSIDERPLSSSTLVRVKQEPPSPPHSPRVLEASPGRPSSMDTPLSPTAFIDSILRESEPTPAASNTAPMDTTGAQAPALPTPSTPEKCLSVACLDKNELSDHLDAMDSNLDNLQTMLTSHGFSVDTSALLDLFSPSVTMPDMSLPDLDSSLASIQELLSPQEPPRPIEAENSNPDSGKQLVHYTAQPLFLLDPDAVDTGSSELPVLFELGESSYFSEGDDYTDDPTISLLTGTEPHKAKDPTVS

[4] = Trypanosoma cruzi growth suppression in host cells – NIH3T3 host cells, beta-gal luminescence, confirmation (AID 2044); assay type: functional, cell-based;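 note: intracellular parasites grown in NIH/3T3 mouse fibroblasts as host cells; luminescent beta-galactosidase reporter signal from transgenic T. cruzi replicating inside host cells; inhibitors lower the luminescence signal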
[5] = target: Induced myeloid leukemia cell differentiation protein Mcl-1 (Homo sapiens, UniProt Q07820); assay type: functional
[6] = alpha-synuclein stem-loop luciferase translation blockers – H4 neuroglioma cells, luminescence, confirmation (AID 1988); assay type: functional, cell-based
[7] = general cell-killing toxicity readout – plate reader, dry powder samples, cytotoxicity control for PAX8 inhibitor project, dose response (AID 743021); assay type: functional, cell-based
[8] = test system: Streptococcus sp. 'group A'; test: Streptococcus pyogenes SK(-)GAS viability under kanamycin – luminescence, BacTiterGlo, confirmation, counter-screen for streptokinase expression inhibitor project, dose response (AID 1900); assay type: functional, organism-based
Protein RecA = target: T4, Protein RecA (Mycobacterium tuberculosis, UniProt P9WHJ3); test: Fluorescence Cell-Free Homogeneous Dose Retest to Identify Inhibitors of RecA-Intein Splicing Activity. [Related pubchem assays (depositor defined):AID2097, AID2223, AID489010, AID492950]; assay type: functional
T4 sequence (P9WHJ3 whole entry): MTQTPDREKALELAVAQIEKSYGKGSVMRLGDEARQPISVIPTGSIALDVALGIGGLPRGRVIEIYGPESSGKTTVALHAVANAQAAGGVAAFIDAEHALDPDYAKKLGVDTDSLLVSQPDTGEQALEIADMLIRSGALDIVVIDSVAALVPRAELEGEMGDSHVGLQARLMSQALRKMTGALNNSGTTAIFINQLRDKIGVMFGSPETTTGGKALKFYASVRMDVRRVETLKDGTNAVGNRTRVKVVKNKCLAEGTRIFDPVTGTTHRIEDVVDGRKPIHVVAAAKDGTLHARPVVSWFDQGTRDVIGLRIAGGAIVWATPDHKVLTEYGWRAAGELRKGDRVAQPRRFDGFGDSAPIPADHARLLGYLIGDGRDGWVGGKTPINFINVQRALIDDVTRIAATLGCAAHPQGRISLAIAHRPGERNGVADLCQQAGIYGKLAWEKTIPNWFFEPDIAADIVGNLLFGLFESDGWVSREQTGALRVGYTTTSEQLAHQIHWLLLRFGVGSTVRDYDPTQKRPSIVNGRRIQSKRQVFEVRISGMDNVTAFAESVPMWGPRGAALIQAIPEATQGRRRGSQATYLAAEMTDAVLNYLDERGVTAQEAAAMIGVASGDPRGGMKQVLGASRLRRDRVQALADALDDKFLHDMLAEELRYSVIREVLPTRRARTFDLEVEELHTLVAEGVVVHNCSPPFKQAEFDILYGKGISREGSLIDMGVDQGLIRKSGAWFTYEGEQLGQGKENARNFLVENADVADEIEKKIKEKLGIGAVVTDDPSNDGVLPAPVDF

Mu-type opioid receptor = Mu-type opioid receptor (Homo sapiens, UniProt P35372); assay type: functional, cell-based;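 note: U2OS cells with beta-arrestin recruitment to OPRM1 by beta-gal complementation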
Streptococcus = test: GAS UMAA2166 growth inhibition – luminescence, BacTiterGlo, counter-screen for streptokinase expression inhibitor project, dose response (AID 1915); assay type: functional, organism-based;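 note: potency for reduction of bacterial viability or growth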
[9] = target: 5-hydroxytryptamine receptor 2A (Mus musculus, UniProt P35363); assay type: functional, cell-based;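 note: CHO-K1 cells with tagged receptor and beta-arrestin; agonist potency measured as compound-induced activation of the receptor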
[10] = luciferase reporter signal suppression in cells – H4 neuroglioma cells, luminescence, dose response (AID 1990); assay type: functional, cell-based
Paired box protein Pax-8 = Paired box protein Pax-8 (Homo sapiens, UniProt Q06710); test: PAX8 transcriptional activity inhibition in RMG-I – RMG-I cells, luciferase, cherry-pick, dose response (AID 687027); assay type: functional, cell-based;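 note: luciferase reporter driven by Pax8 target thyroperoxidase promoter measured by SteadyGlo luminescence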
Beta-lactamase [11] = target: T5, Beta-lactamase (Pseudomonas aeruginosa, UniProt Q79MP6); test: […] counterscreen for selective VIM-2 inhibitors: dose response biochemical high throughput screening assay to identify inhibitors of IMP-1 metallo-beta-lactamase.
Beta-lactamase [12] = target: Beta-lactamase (Salmonella choleraesuis (strain SC-B67), UniProt Q5J463); test: Epi-absorbance-based counterscreen for selective VIM-2 inhibitors: dose response biochemical high throughput screening assay to identify inhibitors of TEM-1 serine-beta-lactamase.
Beta-lactamase [13] = target: T5, Beta-lactamase; test: inhibition of IMP-1 beta-lactamase activity – biochemical, epi-absorbance, selectivity assay for VIM-2 inhibitor project, dose response (AID 1920)
[14] = target: Fructose-bisphosphate aldolase (Mycobacterium tuberculosis, UniProt P9WQA3); test: Fluorescence-based biochemical high throughput dose response assay for inhibitors of the fructose-bisphosphate aldolase (FBA) of M. tuberculosis.; assay type: functional
Vero = test: viability loss in Vero cells – cell-based, plate reader, cherry-pick samples, cytotoxicity control, dose response (AID 687020); assay type: functional; conditions: Chlorocebus sabaeus
[15] = target: T6, Rac GTPase-activating protein 1 (Homo sapiens, UniProt Q9H0H5); test: blockers of MgcRacGAP-driven Rac1 GTP hydrolysis – biochemical, ADP Hunter fluorescence, primary and confirmatory, confirmation (AID 624330); assay type: functional
T6 sequence (Q9H0H5 whole entry): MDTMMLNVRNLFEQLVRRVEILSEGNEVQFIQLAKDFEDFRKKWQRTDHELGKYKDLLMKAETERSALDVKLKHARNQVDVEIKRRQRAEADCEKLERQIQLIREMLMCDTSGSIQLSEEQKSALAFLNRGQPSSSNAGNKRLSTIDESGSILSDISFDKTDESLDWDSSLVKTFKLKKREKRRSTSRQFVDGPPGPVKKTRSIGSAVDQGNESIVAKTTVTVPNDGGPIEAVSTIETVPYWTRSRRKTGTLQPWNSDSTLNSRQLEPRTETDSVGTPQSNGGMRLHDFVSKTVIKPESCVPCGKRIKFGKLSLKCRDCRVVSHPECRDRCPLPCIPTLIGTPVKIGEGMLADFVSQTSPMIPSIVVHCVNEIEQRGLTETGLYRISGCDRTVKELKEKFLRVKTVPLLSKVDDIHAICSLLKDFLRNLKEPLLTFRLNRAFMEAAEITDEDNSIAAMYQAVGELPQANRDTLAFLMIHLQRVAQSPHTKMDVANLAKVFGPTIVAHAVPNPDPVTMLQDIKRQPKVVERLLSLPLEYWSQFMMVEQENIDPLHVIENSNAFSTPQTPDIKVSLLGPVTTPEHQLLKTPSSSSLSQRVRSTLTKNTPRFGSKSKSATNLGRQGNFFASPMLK

[16] = viability loss in HeLa cells – cytotoxicity control for MgcRacGAP inhibitor project, dose response (AID 624300); assay type: functional
[17] = target: G-protein coupled receptor 55 (Homo sapiens, UniProt Q9Y2T6); test: inhibition of LPI-stimulated GPR55 beta-arrestin translocation – imaging, U2OS, beta-arrestin-GFP, LPI agonist, primary screen (AID 2013); assay type: functional;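 note: antagonist potency measured as reduced agonist-driven arrestin aggregation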
H9c2 = test: cells; assay type: functional, cell-based; conditions: Rattus norvegicus, H9c2, Myocardium;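 note: confirmatory concentration-response retest of ultra-high-throughput screening hits for modulation of myocardial damage; cell death induced by hydrogen peroxide oxidative stress; compound pretreatment for 60 min then peroxide exposure for 2 h; potency is for protecting the cells against peroxide damage rather than for killing them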
[18] = Luminescence Cell-Based Dose Confirmation HTS to Identify Inhibitors of Platelet Dense Granule Release. [Related pubchem assays: 1663 (Primary HTS), 1678 (Summary of Project)]; assay type: functional
[19] = target: Luciferin 4-monooxygenase (Photinus pyralis, UniProt P08659); test: inhibition of purified Photinus pyralis luciferase – biochemical, luminescence, dose response (AID 1891)
A549 = test: viability loss in A549 cells – cell-based, plate reader, cherry-pick samples, cytotoxicity control, dose response (AID 687028); assay type: functional; conditions: Homo sapiens
Melanocortin receptor 4 = Melanocortin receptor 4 (Homo sapiens, UniProt P32245); assay type: functional, cell-based;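 note: Cell-based assay with luminescence read-out, confirmatory dose-response testing for agonist activity of biased ligands at MC4R; human U2OS cells with tagged receptor and beta-arrestin; potency of agonists that increase receptor coupling to beta-arrestin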
Melanocortin receptor 4, sequence (P32245 whole entry): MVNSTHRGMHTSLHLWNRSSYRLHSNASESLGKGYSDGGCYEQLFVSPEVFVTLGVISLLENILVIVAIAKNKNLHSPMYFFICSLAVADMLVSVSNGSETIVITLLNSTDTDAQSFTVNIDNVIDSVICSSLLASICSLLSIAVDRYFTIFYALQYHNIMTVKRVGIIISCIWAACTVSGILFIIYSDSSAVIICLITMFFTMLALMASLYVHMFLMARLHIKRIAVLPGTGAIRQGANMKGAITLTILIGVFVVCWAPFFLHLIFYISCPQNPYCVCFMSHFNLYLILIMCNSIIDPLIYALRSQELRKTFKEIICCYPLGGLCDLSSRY

T5 sequence (Q79MP6 whole entry): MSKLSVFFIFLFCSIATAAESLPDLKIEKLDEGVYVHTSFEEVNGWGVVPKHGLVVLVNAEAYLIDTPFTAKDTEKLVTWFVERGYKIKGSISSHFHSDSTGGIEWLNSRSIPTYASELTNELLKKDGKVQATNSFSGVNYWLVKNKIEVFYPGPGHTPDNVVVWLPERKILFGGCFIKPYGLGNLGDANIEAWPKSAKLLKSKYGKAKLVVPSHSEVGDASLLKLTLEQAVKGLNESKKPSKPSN
Beta-lactamase (Salmonella choleraesuis (strain SC-B67), UniProt Q5J463), sequence (Q5J463 whole entry): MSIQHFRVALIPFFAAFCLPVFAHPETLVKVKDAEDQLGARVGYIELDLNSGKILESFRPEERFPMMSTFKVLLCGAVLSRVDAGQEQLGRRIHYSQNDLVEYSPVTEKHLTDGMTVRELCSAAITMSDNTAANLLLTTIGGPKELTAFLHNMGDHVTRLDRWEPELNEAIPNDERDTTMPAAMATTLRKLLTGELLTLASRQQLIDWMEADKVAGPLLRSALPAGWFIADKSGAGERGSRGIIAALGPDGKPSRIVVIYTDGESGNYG
Paired box protein Pax-8, sequence (Q06710 whole entry): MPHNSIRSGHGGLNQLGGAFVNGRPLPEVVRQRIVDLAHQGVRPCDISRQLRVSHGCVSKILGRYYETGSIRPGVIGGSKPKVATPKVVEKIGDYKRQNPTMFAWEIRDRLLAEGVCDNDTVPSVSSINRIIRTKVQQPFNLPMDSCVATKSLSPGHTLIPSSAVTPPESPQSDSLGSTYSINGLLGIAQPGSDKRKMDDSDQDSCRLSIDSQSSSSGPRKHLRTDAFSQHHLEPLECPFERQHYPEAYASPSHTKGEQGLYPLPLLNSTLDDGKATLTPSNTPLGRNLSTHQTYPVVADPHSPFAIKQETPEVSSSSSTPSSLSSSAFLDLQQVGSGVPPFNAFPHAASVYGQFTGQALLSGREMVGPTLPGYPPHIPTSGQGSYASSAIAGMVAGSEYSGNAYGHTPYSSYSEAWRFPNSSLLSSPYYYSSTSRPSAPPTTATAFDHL
Fructose-bisphosphate aldolase, sequence (P9WQA3 whole entry): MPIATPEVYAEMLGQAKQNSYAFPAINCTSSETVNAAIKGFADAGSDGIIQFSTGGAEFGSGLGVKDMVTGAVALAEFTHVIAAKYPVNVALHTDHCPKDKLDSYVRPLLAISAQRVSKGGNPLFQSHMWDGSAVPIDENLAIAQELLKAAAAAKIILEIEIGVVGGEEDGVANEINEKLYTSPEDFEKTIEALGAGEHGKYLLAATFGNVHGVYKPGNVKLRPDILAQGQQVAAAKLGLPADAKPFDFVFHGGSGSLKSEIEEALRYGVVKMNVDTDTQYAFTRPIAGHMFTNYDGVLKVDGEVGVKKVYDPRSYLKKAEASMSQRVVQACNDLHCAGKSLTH
G-protein coupled receptor 55, sequence (Q9Y2T6 whole entry): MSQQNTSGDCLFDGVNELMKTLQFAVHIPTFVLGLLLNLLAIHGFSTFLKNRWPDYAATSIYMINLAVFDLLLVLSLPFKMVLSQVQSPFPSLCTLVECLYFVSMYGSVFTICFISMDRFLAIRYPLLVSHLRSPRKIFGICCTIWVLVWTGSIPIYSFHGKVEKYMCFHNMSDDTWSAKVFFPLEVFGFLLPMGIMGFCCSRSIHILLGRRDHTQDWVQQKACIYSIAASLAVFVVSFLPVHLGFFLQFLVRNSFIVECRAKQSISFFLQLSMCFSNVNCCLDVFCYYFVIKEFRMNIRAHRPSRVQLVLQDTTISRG
Luciferin 4-monooxygenase, sequence (P08659 whole entry): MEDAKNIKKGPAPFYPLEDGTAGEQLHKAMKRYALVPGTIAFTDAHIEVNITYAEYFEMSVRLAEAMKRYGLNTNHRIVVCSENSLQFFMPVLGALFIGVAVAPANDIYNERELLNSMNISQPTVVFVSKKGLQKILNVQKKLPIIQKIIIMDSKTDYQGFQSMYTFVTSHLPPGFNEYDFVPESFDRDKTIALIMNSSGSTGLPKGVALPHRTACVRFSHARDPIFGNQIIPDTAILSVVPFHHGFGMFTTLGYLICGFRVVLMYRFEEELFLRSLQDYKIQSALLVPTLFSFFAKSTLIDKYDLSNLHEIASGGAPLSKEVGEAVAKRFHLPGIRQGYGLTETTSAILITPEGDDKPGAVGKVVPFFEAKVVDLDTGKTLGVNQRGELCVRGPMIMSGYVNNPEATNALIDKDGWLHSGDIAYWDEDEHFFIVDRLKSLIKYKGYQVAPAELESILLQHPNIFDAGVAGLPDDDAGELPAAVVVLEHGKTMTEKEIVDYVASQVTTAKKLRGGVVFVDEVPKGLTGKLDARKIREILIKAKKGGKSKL
5-hydroxytryptamine receptor 2A, sequence (P35363 whole entry): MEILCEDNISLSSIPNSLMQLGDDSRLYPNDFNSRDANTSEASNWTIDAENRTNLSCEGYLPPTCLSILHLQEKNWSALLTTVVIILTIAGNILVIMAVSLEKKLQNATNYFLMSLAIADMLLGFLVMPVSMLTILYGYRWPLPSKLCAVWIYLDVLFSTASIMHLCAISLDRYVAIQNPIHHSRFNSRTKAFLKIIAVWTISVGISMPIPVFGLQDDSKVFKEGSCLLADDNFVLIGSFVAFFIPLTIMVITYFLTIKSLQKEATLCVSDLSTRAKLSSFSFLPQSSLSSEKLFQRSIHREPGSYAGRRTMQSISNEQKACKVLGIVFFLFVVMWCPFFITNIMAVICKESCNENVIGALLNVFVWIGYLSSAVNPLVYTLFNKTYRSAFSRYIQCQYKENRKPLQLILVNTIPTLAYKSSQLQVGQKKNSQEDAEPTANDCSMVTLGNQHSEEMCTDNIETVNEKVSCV
Induced myeloid leukemia cell differentiation protein Mcl-1, sequence (Q07820 whole entry): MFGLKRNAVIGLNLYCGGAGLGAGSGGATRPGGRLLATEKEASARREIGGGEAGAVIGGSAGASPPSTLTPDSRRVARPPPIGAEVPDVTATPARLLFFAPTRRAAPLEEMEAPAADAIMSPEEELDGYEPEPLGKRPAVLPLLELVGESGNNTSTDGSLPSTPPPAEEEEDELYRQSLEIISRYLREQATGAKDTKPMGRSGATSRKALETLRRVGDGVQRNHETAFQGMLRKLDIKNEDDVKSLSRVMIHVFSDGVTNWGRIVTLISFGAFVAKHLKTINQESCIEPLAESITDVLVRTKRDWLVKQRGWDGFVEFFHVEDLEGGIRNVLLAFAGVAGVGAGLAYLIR
Mu-type opioid receptor, sequence (P35372 whole entry): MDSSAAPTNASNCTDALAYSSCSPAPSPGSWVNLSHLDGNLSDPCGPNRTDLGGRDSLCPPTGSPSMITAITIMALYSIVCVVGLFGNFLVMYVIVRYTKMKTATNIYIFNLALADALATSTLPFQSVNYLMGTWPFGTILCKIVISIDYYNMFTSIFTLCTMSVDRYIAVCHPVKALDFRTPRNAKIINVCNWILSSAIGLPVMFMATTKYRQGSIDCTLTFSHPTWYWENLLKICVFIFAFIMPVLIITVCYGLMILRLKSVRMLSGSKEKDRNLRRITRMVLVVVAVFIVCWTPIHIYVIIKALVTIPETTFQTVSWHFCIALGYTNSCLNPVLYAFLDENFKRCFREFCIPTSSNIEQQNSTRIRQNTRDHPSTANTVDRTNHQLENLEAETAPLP

Cc1cc(N/N=C/c2ccc(O)c(C)c2O)nc(-c2ccccc2O)n1
AC50 [1]: > 380 µM (inactive) | EC50 [2]: 13.1 µM (active) | EC50 (Streptokinase A): > 150 µM (not active) | EC50 [3]: 3.71 µM (active) | EC50 [4]: 1.1 µM (active) | IC50 [5]: 3.3 µM (active) | EC50 [6]: > 120 µM (not active) | AC50 [7]: 14.1 µM (active) | EC50 [8]: 4.48 µM (active) | EC50 (Protein RecA): > 380 µM (inconclusive) | EC50 (Mu-type opioid receptor): 92.5 µM (inactive) | EC50 (Streptococcus): 8.71 µM (active) | EC50 [9]: 7.6 µM (active) | EC50 [10]: > 60 µM (not active) | AC50 (Paired box protein Pax-8): 4.54 µM (active)

C=CCn1c(S)nnc1C1CC1
IC50 (Beta-lactamase [11]): > 59.6 µM (inactive) | IC50 (Beta-lactamase [12]): > 59.6 µM (inactive) | IC50 (Beta-lactamase [13]): > 59.6 µM (inactive)

O=C(O)CC/C(=C\c1cc([N+](=O)[O-])ccc1Cl)c1nc2ccccc2s1
IC50 (Beta-lactamase [11]): 43.1 µM (inactive) | IC50 (Beta-lactamase [12]): > 59.6 µM (inactive) | IC50 (Beta-lactamase [13]): > 59.6 µM (inactive)

CNc1cccc(-c2ccc(N3CCN(C)CC3)nc2)n1
IC50 [14]: 2.18 µM (active)

COC(=O)c1ccc2nc(-c3ccc(F)cc3)c(Cc3ccccc3OC)n2c1
AC50 (Vero): 35.2 µM (active)

Cc1n[nH]c(-c2ccc(O)cc2O)c1Oc1ccccc1
IC50 [15]: 34.2 µM (active) | CC50 [16]: 100 µM (active) | IC50 [17]: 8.31 µM (active)

C=C1C(C)C2C(Cc3ccccc3)NC(=O)C23OC(=O)/C=C/C(O)CCCC(C)C/C=C/C3C1O (stereo unspecified)
AC50 [7]: 3.36 µM (active) | IC50 (H9c2): > 79 µM (inactive) | AC50 (Paired box protein Pax-8): 3.15 µM (active)

CCN(CC)c1ccc(/C=N/NC(=O)c2ccoc2C)cc1
EC50 [18]: 3.59 µM (active) | EC50 [19]: 1.42 µM (active) | CC50 [16]: 100 µM (active)

CCOC(=O)CC1(C)Sc2ccccc2N1S(=O)(=O)c1ccc(C)cc1 (stereo unspecified)
AC50 (Vero): 28.5 µM (active)

CC(=O)Nc1cc(-c2ccc(C(=O)NC3CC3)cc2)cn2c(-c3cccc(C(F)(F)F)c3)cnc12
AC50 (A549): 26.8 µM (active) | EC50 (Melanocortin receptor 4): > 89.2 µM (inactive)

CCS(=O)(=O)Nc1ccccc1C(N)=O
IC50 [14]: 2.58 µM (active)
